According to patent US20260285846A1, “REV-ERB AGONISTS FOR TH17-MEDIATED INFLAMMATORY DISORDERS” (UNIVERSITY OF FLORID RESEARCH FOUNDATION, iNCORPORATED, priority 2021, published 2026):

Target: REV-ERBα LBD (Homo sapiens, UniProt P20393, DEL324-422)
Test: biochemical
Conditions: FRET assay; 6xHistag-REV-ERBα LBD with FITC-labeled SMRT corepressor peptide; read-out: REVERBα (Agonism of REV-ERBα, EC50)
Experimental: TR-FRET corepressor interaction assay. The time-resolved fluorescence resonance energy transfer (TR-FRET) assay was performed in black low-volume 384-well plates (Greiner). Each well contained 4 nM 6×Histag-REV-ERBα LBD (human; residues 281-614 A324-422) or 6×Histag-REV-ERBα LBD (human; residues 381-579) protein expressed in and purified from Escherichia coli using nickel affinity and size exclusion chromatography; 1 nM LanthaScreen Elite Tb-anti-HIS Antibody (Thermo Fisher Scientific); and 400 nM FITC-labeled peptide derived from the SMRT corepressor ([…]) containing a N-terminal FITC label with a six-carbon linker (Ahx) and an amidated C-terminus for stability (synthesized by LifeTein) in TR-FRET buffer (20 mM potassium phosphate, pH 7.4, 50 mM potassium chloride, 1 mM dithiothreitol, and 0.005% Tween-20). Ligand stocks were prepared via serial dilution in DMSO, added to wells in triplicate, and plates were incubated at 4° C. for 2 h and read using a BioTek Synergy Neo multimode plate reader. The Tb donor was excited at 340 nm; its fluorescence emission was monitored at 495 nm, and the acceptor FITC emission was measured at 520 nm; and the TR-FRET ratio was calculated as the signal at 520 nm divided by the signal at 495 nm. Data were plotted using GraphPad Prism as TR-FRET ratio vs. ligand concentration and fit to sigmoidal dose response curve equation.
Exemplary compounds of the present disclosure were assayed as described above to assess agonism of REV-ERBα. Results of the FRET assay are shown in Table 2 below (A: EC50<100 nM; B: EC50 100 nM-1000 nM; C: EC50>1000 nM; NT: not tested).

Sequence of REV-ERBα LBD (P20393 with tags, fused parts or gaps DEL324-422): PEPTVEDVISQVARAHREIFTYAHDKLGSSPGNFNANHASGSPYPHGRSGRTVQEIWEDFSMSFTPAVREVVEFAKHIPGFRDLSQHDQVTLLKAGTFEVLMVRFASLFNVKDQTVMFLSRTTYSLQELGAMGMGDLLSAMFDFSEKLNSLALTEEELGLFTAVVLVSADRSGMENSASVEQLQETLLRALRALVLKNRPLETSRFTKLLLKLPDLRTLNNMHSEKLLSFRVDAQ
Sequence of REV-ERBα LBD (Q9Y618 2335-2356 partner limits assumed): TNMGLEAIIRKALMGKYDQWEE

SMILES | EC50 [nM]
CC(NS(=O)(=O)C1CC1)c1cn(CC(C)(C)C)c2cc(-c3cncc(F)c3)c(F)cc12 (stereo not drawn) [Compound 68, N-(1-(5-fluoro-6-(5-fluoropyridin-3-yl)-1-neopentyl-1H-indol-3-yl)ethyl)cyclopropanesulfonamide] | 100 to 1000
CC(C)(C)Cn1cc([C@H](NS(=O)(=O)C2CCC2)C(F)F)c2cc(F)c(-c3ccc(F)cc3C(F)(F)F)cc21 [Compound 170, (S)—N-(2,2-difluoro-1-(5-fluoro-6-(4-fluoro-2-(trifluoromethyl)phenyl)-1-neopentyl-1H-indol-3-yl)ethyl)cyclobutanesulfonamide] | < 100
CC(C)(C)Cn1cc([C@H](NS(=O)(=O)C2CC2)C(F)F)c2ccc(-c3nccnc3C(F)(F)F)cc21 [Compound 47, (S)—N-(2,2-difluoro-1-(1-neopentyl-6-(3-(trifluoromethyl)pyrazin-2-yl)-1H-indol-3-yl)ethyl)cyclopropanesulfonamide] | < 100
CC(C)(C)Cn1cc([C@H](NS(=O)(=O)C2CC(F)(F)C2)C(F)F)c2ccc(-c3ccccc3C(F)(F)F)cc21 [Compound 11, (S)—N-(2,2-difluoro-1-(1-neopentyl-6-(2-(trifluoromethyl)phenyl)-1H-indol-3-yl)ethyl)-3,3-difluorocyclobutane-1-sulfonamide] | < 100
CC(NS(=O)(=O)C1CC1)c1cn(CC(C)(C)C)c2cc(-c3cnccc3C#N)c(F)cc12 (single isomer, unassigned) [Compound 32, (R or S) N-(1-(6-(4-cyanopyridin-3-yl)-5-fluoro-1-neopentyl-1H-indol-3-yl)ethyl)cyclopropanesulfonamide] | < 100
CC(C)(C)Cn1cc([C@H](NS(=O)(=O)C2CC2)C(F)F)c2cc(F)c(-c3cncnc3C(F)(F)F)cc21 [Compound 112, (S)—N-(2,2-difluoro-1-(5-fluoro-1-neopentyl-6-(4-(trifluoromethyl)pyrimidin-5-yl)-1H-indol-3-yl)ethyl)cyclopropanesulfonamide] | < 100
O=S(=O)(N[C@@H](c1cn(C2CC(F)C2)c2cc(-c3ccc(F)cc3C(F)(F)F)c(F)cc12)C(F)F)C1CC1 (stereo partly drawn) [Compound 181, (S)—N-(2,2-difluoro-1-(5-fluoro-6-(4-fluoro-2-(trifluoromethyl)phenyl)-1-(3-fluorocyclobutyl)-1H-indol-3-yl)ethyl)cyclopropanesulfonamide] | < 100
CC(C)(C)Cn1cc([C@H](NS(=O)(=O)C2CC2)C(F)F)c2ccc(-c3nccnc3C#N)cc21 [Compound 48, (S)—N-(1-(6-(3-cyanopyrazin-2-yl)-1-neopentyl-1H-indol-3-yl)-2,2-difluoroethyl)cyclopropanesulfonamide] | 100 to 1000
CC(NS(=O)(=O)C1CC1)c1cn(CC(C)(C)C)c2cc(-c3ncccc3C(F)(F)F)c(F)cc12 (single isomer, unassigned) [Compound 18, (S or R)—N-(1-(5-fluoro-1-neopentyl-6-(3-(trifluoromethyl)pyridine-2-yl)-1H-indol-3-yl)ethyl)cyclopropane sulfonamide] | < 100
CC(NS(=O)(=O)C1CC1)c1cn(CC(C)(C)C)c2cc(-c3cccnc3C(F)(F)F)c(F)cc12 (single isomer, unassigned) [Compound 29, (S or R) N-[1-[1-(2,2-dimethylpropyl)-5-fluoro-6-[2-(trifluoromethyl)-3-pyridyl]indol-3-yl]ethyl]cyclopropanesulfonamide] | 100 to 1000
CC(NS(=O)(=O)C1CC1)c1cn(CC(C)(C)C)c2cc(-c3ncccc3C3CC3)c(F)cc12 (stereo not drawn) [Compound 60, N-(1-(6-(3-cyclopropylpyridin-2-yl)-5-fluoro-1-neopentyl-1H-indol-3-yl)ethyl)cyclopropanesulfonamide] | < 100
CC(C)(C)Cn1cc([C@H](NS(=O)(=O)C2CC2)C(F)F)c2ccc(-c3c(C(F)F)ccnc3C#N)cc21 [Compound 118, (S)—N-(1-(6-(2-cyano-4-(difluoromethyl)pyridin-3-yl)-1-neopentyl-1H-indol-3-yl)-2,2-difluoroethyl)cyclopropanesulfonamide] | < 100
CC(C)(C)Cn1cc([C@H](NS(=O)(=O)C2CC2)C(F)F)c2cc(F)c(-c3ncc(F)cc3F)cc21 [Compound 91, (S)—N-(1-(6-(3,5-difluoropyridin-2-yl)-5-fluoro-1-neopentyl-1H-indol-3-yl)-2,2-difluoroethyl)cyclopropanesulfonamide] | < 100
CC(C)(C)Cn1cc([C@H](NS(=O)(=O)C2CC2)C(F)F)c2ccc(-c3ncccc3C#N)cc21 [Compound 40, (S)—N-(1-(6-(3-cyanopyridin-2-yl)-1-neopentyl-1H-indol-3-yl)-2,2-difluoroethyl)cyclopropanesulfonamide] | < 100
CC(NS(=O)(=O)C1CC1)c1cn(CC(C)(C)C)c2cc(-c3ncc(F)cc3Cl)c(F)cc12 (stereo not drawn) [Compound 62, N-(1-(6-(3-chloro-5-fluoropyridin-2-yl)-5-fluoro-1-neopentyl-1H-indol-3-yl)ethyl)cyclopropanesulfonamide] | < 100
CC(C)(C)Cn1cc([C@H](NS(=O)(=O)C2CC2)C(F)(F)F)c2cc(F)c(-c3ccccc3OC(F)(F)F)cc21 [Compound 5, (S)—N-(2,2,2-trifluoro-1-(5-fluoro-1-neopentyl-6-(2-(trifluoromethoxy)phenyl)-H-indol-3-yl)ethyl)cyclopropanesulfonamide] | < 100
CC(C)(C)Cn1cc([C@H](NS(=O)(=O)C2CC2)C(F)F)c2cc(F)c(-c3cnc(C#N)cc3C(F)(F)F)cc21 [Compound 133, (S)—N-(1-(6-(6-cyano-4-(trifluoromethyl)pyridin-3-yl)-5-fluoro-1-neopentyl-1H-indol-3-yl)-2,2-difluoroethyl)cyclopropanesulfonamide] | < 100
N#CC1CC(n2cc([C@H](NS(=O)(=O)C3CC3)C(F)F)c3cc(F)c(-c4cc(F)cnc4C(F)(F)F)cc32)C1 (stereo partly drawn) [Compound 151, (S)—N-(1-(1-(3-cyanocyclobutyl)-5-fluoro-6-(5-fluoro-2-(trifluoromethyl)pyridin-3-yl)-1H-indol-3-yl)-2,2-difluoroethyl)cyclopropanesulfonamide] | < 100
O=S(=O)(N[C@@H](c1cn(C2CNC2)c2cc(-c3ccc(F)cc3C(F)(F)F)c(F)cc12)C(F)F)C1CC1 [Compound 152, (S)—N-(1-(1-(azetidin-3-yl)-5-fluoro-6-(4-fluoro-2-(trifluoromethyl)phenyl)-1H-indol-3-yl)-2,2-difluoroethyl)cyclopropanesulfonamide] | > 1000
CN(C)S(=O)(=O)N[C@@H](c1cn(CC(C)(C)C)c2cc(-c3ccccc3C(F)(F)F)c(F)cc12)C(F)F [Compound 54] | < 100
N#Cc1nccc(C(F)F)c1-c1cc2c(cc1F)c([C@H](NS(=O)(=O)C1CC1)C(F)F)cn2C1CCC1 [Compound 161, N-((1S)-1-(6-(2-cyano-4-(difluoromethyl)pyridin-3-yl)-1-cyclobutyl-5-fluoro-1H-indol-3-yl)-2,2-difluoroethyl)cyclopropanesulfonamide] | < 100
CC(C)(C)Cn1cc([C@H](NS(=O)(=O)C2CC2)C(F)F)c2cc(F)c(-c3ccc(F)cc3C(F)(F)F)cc21 [Compound 164, (S)—N-(2,2-difluoro-1-(5-fluoro-6-(4-fluoro-2-(trifluoromethyl)phenyl)-1-neopentyl-1H-indol-3-yl)ethyl)cyclopropanesulfonamide] | < 100
CC(NS(=O)(=O)C1CC1)c1cn(CC(C)(C)C)c2cc(-c3cc(F)cnc3C#N)c(F)cc12 (stereo not drawn) [Compound 67, N-(1-(6-(2-cyano-5-fluoropyridin-3-yl)-5-fluoro-1-neopentyl-1H-indol-3-yl)ethyl)cyclopropanesulfonamide] | < 100
CC(C)(C)Cn1cc([C@H](NS(=O)(=O)C2CC2)C(F)F)c2cc(F)c(-c3nccnc3C(F)(F)F)cc21 [Compound 57, (S)—N-(2,2-difluoro-1-(5-fluoro-1-neopentyl-6-(3-(trifluoromethyl)pyrazin-2-yl)-1H-indol-3-yl)ethyl)cyclopropanesulfonamide] | < 100
CC(C)(C)Cn1cc([C@H](NS(=O)(=O)C2CC2)C(F)(F)F)c2ccc(-c3cc(F)ccc3C#N)cc21 [Compound 2, (S)—N-(1-(6-(2-cyano-5-fluorophenyl)-1-neopentyl-1H-indol-3-yl)-2,2,2-trifluoroethyl)cyclopropanesulfonamide] | 100 to 1000
CC(C)(C)Cn1cc([C@H](NS(=O)(=O)C2CC2)C(F)F)c2cc(F)c(-c3cnccc3C(F)(F)F)cc21 [Compound 113, (S)—N-(2,2-difluoro-1-(5-fluoro-1-neopentyl-6-(4-(trifluoromethyl)pyridin-3-yl)-1H-indol-3-yl)ethyl)cyclopropanesulfonamide] | < 100
CC(C)(C)Cn1cc([C@H](NS(=O)(=O)C2CC2)C(F)F)c2cc(F)c(-c3c(F)ccnc3C(F)(F)F)cc21 [Compound 131, N-((1S)-2,2-difluoro-1-(5-fluoro-6-(4-fluoro-2-(trifluoromethyl)pyridin-3-yl)-1-neopentyl-1H-indol-3-yl)ethyl)cyclopropanesulfonamide] | < 100
